Experimental data as given in ChEMBL document CHEMBL1201862, “PubChem BioAssay data set” (2004).
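Assay format: 96-well plates, 48-hour exposure. Here, GI50 denotes the concentration required for 50% inhibition of growth.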 Calls of active or inactive are those of the source. Cut-off read from the data, not from the text of the source: active = GI50 up to about 1.1 µM and inactive = higher.

Legend:
Test in all cases: growth of human tumour cells (NCI), 48 h
[1] = system: A549
[2] = system: ACHN
[3] = system: CCRF-CEM
[4] = system: EKVX
[5] = system: HL-60
[6] = system: HOP-62
[7] = system: HOP-92
[8] = system: M14
[9] = system: NCI-H226
[10] = system: NCI-H460
[11] = system: NCI-H522
[12] = system: OVCAR-4
[13] = system: SK-OV-3
[14] = system: SNB-19
[15] = system: UACC-62

Structure (SMILES) | GI50 [1] | GI50 [2] | GI50 [3] | GI50 [4] | GI50 [5] | GI50 [6] | GI50 [7] | GI50 [8] | GI50 [9] | GI50 [10] | GI50 [11] | GI50 [12] | GI50 [13] | GI50 [14] | GI50 [15]
COC(=O)/C(=N\NC(N)=O)C(C(=O)C(=O)Nc1ccccc1C(=O)OC)c1nc2ccc(C(=O)c3ccccc3)cc2nc1O (stereo not given) | > 100 µM (inactive) | > 100 µM (inactive) | > 100 µM (inactive) | > 100 µM (inactive) | > 100 µM (inactive) | > 100 µM (inactive) | > 100 µM (inactive) | > 100 µM (inactive) | > 100 µM (inactive) | > 100 µM (inactive) | > 100 µM (inactive) | > 100 µM (inactive) | > 100 µM (inactive) | > 100 µM (inactive) | > 100 µM (inactive)
COc1ccc(/C(=N\NC(=O)C(=O)NN)C(c2ccc(OC)cc2)C2(O)C(=O)Nc3ccccc32)cc1 (stereo not given) | 62.4 µM (inactive) | 82.2 µM (inactive) | > 10 µM (inactive) | > 100 µM (inactive) |  | 94.8 µM (inactive) | 97.1 µM (inactive) | > 100 µM (inactive) | > 100 µM (inactive) | 60.3 µM (inactive) | 28.1 µM (inactive) |  | > 100 µM (inactive) | 53.3 µM (inactive) | 45.3 µM (inactive)
O=C1C2C3CC4C5C3C1C5C1(SCCS1)C42 (stereo not given) | > 100 µM (inactive) | > 100 µM (inactive) | > 100 µM (inactive) |  | > 100 µM (inactive) | > 100 µM (inactive) |  | > 100 µM (inactive) | > 100 µM (inactive) | > 100 µM (inactive) | > 100 µM (inactive) | > 100 µM (inactive) | > 100 µM (inactive) | > 100 µM (inactive) | > 100 µM (inactive)
Cc1ccccc1C(=O)Oc1ccc(O)cc1 | > 100 µM (inactive) | > 100 µM (inactive) | > 100 µM (inactive) | > 100 µM (inactive) | > 100 µM (inactive) | > 100 µM (inactive) |  | > 100 µM (inactive) | > 100 µM (inactive) | > 100 µM (inactive) | > 100 µM (inactive) | > 100 µM (inactive) | > 100 µM (inactive) | > 100 µM (inactive) | > 100 µM (inactive)
N#CCCN(c1ccc(C=O)cc1)S(=O)(=O)c1ccccc1 | > 100 µM (inactive) | > 100 µM (inactive) |  | > 100 µM (inactive) | > 100 µM (inactive) | > 100 µM (inactive) |  | > 100 µM (inactive) | > 100 µM (inactive) | > 100 µM (inactive) | > 100 µM (inactive) | > 100 µM (inactive) | > 100 µM (inactive) | > 100 µM (inactive) | > 100 µM (inactive)
Cn1c(=O)nc2n(-c3ccc(Cl)cc3)c3ccc(Cl)cc3nc-2c1=O | 5.75 µM (inactive) |  | 13.6 µM (inactive) | 12.9 µM (inactive) | 2.68 µM (inactive) | 18 µM (inactive) | 7.05 µM (inactive) | 9.06 µM (inactive) | 11.5 µM (inactive) | 5.98 µM (inactive) | 6.35 µM (inactive) |  | 88.7 µM (inactive) | > 10 µM (inactive) | 1.07 µM (active)
CCN(CC)CCn1c2c3ccccc3ccc2c2oc(=O)c3ccccc3c21 | > 100 µM (inactive) | > 100 µM (inactive) | > 100 µM (inactive) | > 100 µM (inactive) | > 100 µM (inactive) | 18.3 µM (inactive) | 83.6 µM (inactive) | 45.5 µM (inactive) |  | 13.7 µM (inactive) | > 100 µM (inactive) | 28.1 µM (inactive) | > 100 µM (inactive) | 80 µM (inactive) | > 100 µM (inactive)
Cc1cc(O)nc(CNC(=O)Cc2ccccc2)n1 | > 100 µM (inactive) | > 100 µM (inactive) | > 100 µM (inactive) | > 100 µM (inactive) | > 100 µM (inactive) | > 100 µM (inactive) | > 100 µM (inactive) | > 100 µM (inactive) | > 100 µM (inactive) | > 100 µM (inactive) | > 100 µM (inactive) | > 100 µM (inactive) | > 100 µM (inactive) | > 100 µM (inactive) | > 100 µM (inactive)
CC1=COC(=O)c2ccccc2N1 | > 100 µM (inactive) | > 100 µM (inactive) | > 100 µM (inactive) | > 100 µM (inactive) | > 100 µM (inactive) | > 100 µM (inactive) | > 100 µM (inactive) | > 100 µM (inactive) | > 100 µM (inactive) | > 100 µM (inactive) | > 100 µM (inactive) | > 100 µM (inactive) | > 100 µM (inactive) | > 100 µM (inactive) | > 100 µM (inactive)
CCN(CC)CCNC(=O)c1ccccc1NC(=O)C(=O)Nc1ccccc1C(=O)NCCN(CC)CC | > 100 µM (inactive) | 92.3 µM (inactive) | 30.3 µM (inactive) | > 100 µM (inactive) | 15.2 µM (inactive) | > 100 µM (inactive) | 31.4 µM (inactive) | 19.1 µM (inactive) | > 100 µM (inactive) | 75 µM (inactive) | 39.2 µM (inactive) | 64.1 µM (inactive) | > 100 µM (inactive) | > 100 µM (inactive) | > 100 µM (inactive)
